Patent publication US8796256B2 (Janssen Pharmaceutica NV, priority 2010, dated 2014)
pEC50: −log10 of the molar value.

What follows are compounds tested against T1, ERR1 (also known as ERR-α or ERR-1) (Homo sapiens, UniProt P11474) (assay: TR-FRET assay (disruption of co-activator peptide binding to ERR1 LBD)). Conditions: 6 nM 6His-ERR1LBD, 6 nM GST-SRC-2 peptide; average of 3 independent experiments.
T1 sequence (P11474 193-421 limits assumed): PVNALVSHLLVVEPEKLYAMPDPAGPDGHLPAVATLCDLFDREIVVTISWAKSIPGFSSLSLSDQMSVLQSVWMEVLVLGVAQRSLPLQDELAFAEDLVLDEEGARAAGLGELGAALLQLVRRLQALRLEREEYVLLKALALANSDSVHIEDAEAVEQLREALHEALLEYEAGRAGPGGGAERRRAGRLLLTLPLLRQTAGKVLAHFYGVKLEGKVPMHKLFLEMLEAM
Format: biochemical
Procedure: Time-Resolved Fluorescence Resonance Energy Transfer (TR-FRET) experiments were performed to examine the functional response of ERR1 (also known as ERR-α or ERR-1) ligands. The TR-FRET assay described herein relied on the conformation of ERR1 for binding to a co-activator peptide: when a test compound binds to ERR1 and alters its conformation, it can disrupt the binding of the co-activator peptide. The components of this homogeneous secondary assay included: the ^6His-tagged-ERR1LBD, a GST-labeled-hSRC2 co-activator polypeptide and a fluorescent donor/acceptor pair from CIS bio international htrf/bioassays (Bedford, Mass.) using both an α-GST Europium (Eu) Cryptate label and an α^6His-XL665 (allophycocyanin) fluorophore.
For TR-FRET measurements, the reaction was buffered in 25 mM Tris pH 8, 2.5 mM Hepes, 20 mM KCl, 1 mM DTT, and 0.05 mg/mL BSA (delipidated). The final concentrations of reagents were 6 nM of ERR1LBD, 6 nM GST-SRC-2 peptide, 30 nM Eu cryptate, and 7.5 nM a^6His-XL665. Reactions were allowed to reach equilibrium at 25° C. for 4-18 h before collecting data on the Analyst from LJL Biosystems (Molecular Devices Sunnyvale, Calif.). […] Dose response curves were fitted using a hyperbolic equation and the data reported is the average of 3 independent experiments.

Structure (SMILES)	pEC50
O=C1S/C(=C\c2ccc3c(cnn3Cc3ccc(Cl)cc3C(F)(F)F)c2)C(=O)N1[C@@H]1CNC[C@@H]1F (relative stereo) [Compound 322, (5Z)-5-({1-[4-Chloro-2-(trifluoromethyl)benzyl]-1H-indazol-5-yl}methylidene)-3-[cis-4-fluoropyrrolidin-3-yl]-1,3-thiazolidine-2,4-dione]	7.22
CN1C[C@@H](N2C(=O)S/C(=C\c3ccc4c(cnn4Cc4ccc(Cl)cc4C(F)(F)F)c3)C2=O)[C@@H](F)C1 (relative stereo) [Compound 323, (5Z)-5-({1-[4-Chloro-2-(trifluoromethyl)benzyl]-1H-indazol-5-yl}methylidene)-3-[cis-4-fluoro-1-methylpyrrolidin-3-yl]-1,3-thiazolidine-2,4-dione]	7.27
CC(C)N1CC[C@@H](N2C(=O)S/C(=C\c3ccc4c(cnn4Cc4ccc(Cl)cc4C(F)(F)F)c3)C2=O)[C@H](F)C1 (relative stereo) [Compound 328, (5Z)-5-({1-[4-Chloro-2-(trifluoromethyl)benzyl]-1H-indazol-5-yl}methylidene)-3-[trans-3-fluoro-1-(1-methylethyl)piperidin-4-yl]-1,3-thiazolidine-2,4-dione]	6.82
[2H]C([2H])([2H])N1CC[C@@H](N2C(=O)S/C(=C\c3ccc4c(cnn4Cc4ccc(Cl)cc4C(F)(F)F)c3)C2=O)[C@H](F)C1 (relative stereo) [Compound 329, (5Z)-5-({1-[4-Chloro-2-(trifluoromethyl)benzyl]-1H-indazol-5-yl}methylidene)-3-[trans-3-fluoro-1-(1,1,1-d3)-methylpiperidin-4-yl]-1,3-thiazolidine-2,4-dione]	7.82

The remaining compounds from weak to strong by pEC50, led by results:

pEC50	Structure (SMILES)
7.06	CC(C)N1C[C@@H](N2C(=O)S/C(=C\c3ccc4c(cnn4Cc4ccc(Cl)cc4C(F)(F)F)c3)C2=O)[C@@H](F)C1 (relative stereo) [Compound 325, (5Z)-5-({1-[4-Chloro-2-(trifluoromethyl)benzyl]-1H-indazol-5-yl}methylidene)-3-[cis-4-fluoro-1-(1-methylethyl)pyrrolidin-3-yl]-1,3-thiazolidine-2,4-dione]
7.37	CC(C)N1C[C@@H](F)[C@H](N2C(=O)S/C(=C\c3ccc4c(cnn4Cc4ccc(Cl)cc4C(F)(F)F)c3)C2=O)C1 (relative stereo) [Compound 321, (5Z)-5-({1-[4-Chloro-2-(trifluoromethyl)benzyl]-1H-indazol-5-yl}methylidene)-3-[trans-4-fluoro-1-(1-methylethyl)pyrrolidin-3-yl]-1,3-thiazolidine-2,4-dione]
7.48	CCN1C[C@@H](N2C(=O)S/C(=C\c3ccc4c(cnn4Cc4ccc(Cl)cc4C(F)(F)F)c3)C2=O)[C@@H](F)C1 (relative stereo) [Compound 324, (5Z)-5-({1-[4-Chloro-2-(trifluoromethyl)benzyl]-1H-indazol-5-yl}methylidene)-3-[cis-1-ethyl-4-fluoropyrrolidin-3-yl]-1,3-thiazolidine-2,4-dione]
7.51	CCN1C[C@@H](F)[C@H](N2C(=O)S/C(=C\c3ccc4c(cnn4Cc4ccc(Cl)cc4C(F)(F)F)c3)C2=O)C1 (relative stereo) [Compound 320, (5Z)-5-({1-[4-Chloro-2-(trifluoromethyl)benzyl]-1H-indazol-5-yl}methylidene)-3-[trans-1-ethyl-4-fluoropyrrolidin-3-yl]-1,3-thiazolidine-2,4-dione]
7.68	O=C1S/C(=C\c2ccc3c(cnn3Cc3ccc(Cl)cc3C(F)(F)F)c2)C(=O)N1[C@@H]1CCN(CCO)C[C@H]1F (relative stereo) [Compound 327, (5Z)-5-({1-[4-Chloro-2-(trifluoromethyl)benzyl]-1H-indazol-5-yl}methylidene)-3-[trans-3-fluoro-1-(2-hydroxyethyl)piperidin-4-yl]-1,3-thiazolidine-2,4-dione]
